Measured values reported in ChEMBL document CHEMBL4507257, “Data for DCP probe ABT-100” (2021).

Key:
[1] = molecular target: Vascular endothelial growth factor receptor 3 (Homo sapiens) (UniProt P35916); conditions: Compound concentration 1000.0 nM
[2] = molecular target: Receptor-type tyrosine-protein kinase FLT3 (Homo sapiens) (UniProt P36888); conditions: Compound concentration 1000.0 nM
[3] = molecular target: Serine/threonine-protein kinase 35 (Homo sapiens) (UniProt Q8TDR2); conditions: Compound concentration 1000.0 nM
[4] = test system: Epidermal growth factor receptor (Homo sapiens), P00533 [G719S]; conditions: Compound concentration 1000.0 nM
[5] = molecular target: Mitogen-activated protein kinase kinase kinase kinase 5 (Homo sapiens) (UniProt Q9Y4K4); conditions: Compound concentration 1000.0 nM
[6] = molecular target: MAP kinase-interacting serine/threonine-protein kinase 2 (Homo sapiens) (UniProt Q9HBH9); conditions: Compound concentration 1000.0 nM
[7] = molecular target: Mitogen-activated protein kinase 1 (Homo sapiens) (UniProt P28482); conditions: Compound concentration 1000.0 nM
[8] = molecular target: Inhibitor of nuclear factor kappa-B kinase subunit alpha (Homo sapiens) (UniProt O15111); conditions: Compound concentration 1000.0 nM
[9] = molecular target: Fibroblast growth factor receptor 2 (Homo sapiens) (UniProt P21802); conditions: Compound concentration 1000.0 nM
[10] = test system: Receptor-type tyrosine-protein kinase FLT3 (Homo sapiens), P36888 [D835Y]; conditions: Compound concentration 1000.0 nM
[11] = molecular target: Mitogen-activated protein kinase 10 (Homo sapiens) (UniProt P53779); conditions: Compound concentration 1000.0 nM
[12] = molecular target: Cyclin-dependent kinase 14 (Homo sapiens) (UniProt O94921); conditions: Compound concentration 1000.0 nM
[13] = molecular target: Casein kinase II subunit alpha' (Homo sapiens) (UniProt P19784); conditions: Compound concentration 1000.0 nM
[14] = molecular target: Serine/threonine-protein kinase 24 (Homo sapiens) (UniProt Q9Y6E0); conditions: Compound concentration 1000.0 nM
[15] = molecular target: Calcium/calmodulin-dependent protein kinase kinase 2 (Homo sapiens) (UniProt Q96RR4); conditions: Compound concentration 1000.0 nM
[16] = molecular target: Serine/threonine-protein kinase Nek6 (Homo sapiens) (UniProt Q9HC98); conditions: Compound concentration 1000.0 nM
[17] = test system: Hepatocyte growth factor receptor (Homo sapiens), P08581 [M1250T]; conditions: Compound concentration 1000.0 nM
[18] = molecular target: Serine/threonine-protein kinase tousled-like 1 (Homo sapiens) (UniProt Q9UKI8); conditions: Compound concentration 1000.0 nM
[19] = test system: Epidermal growth factor receptor (Homo sapiens), P00533 [UNDEFINED MUTATION]; conditions: Compound concentration 1000.0 nM
[20] = molecular target: 5-hydroxytryptamine receptor 1E (Homo sapiens) (UniProt P28566); conditions: Compound concentration 10.0 uM
[21] = molecular target: STE20-like serine/threonine-protein kinase (Homo sapiens) (UniProt Q9H2G2); conditions: Compound concentration 1000.0 nM
[22] = molecular target: Serine/threonine-protein kinase Nek2 (Homo sapiens) (UniProt P51955); conditions: Compound concentration 1000.0 nM
[23] = molecular target: Ephrin type-A receptor 2 (Homo sapiens) (UniProt P29317); conditions: Compound concentration 1000.0 nM
[24] = test system: Mast/stem cell growth factor receptor Kit (Homo sapiens), P10721 [A829P]; conditions: Compound concentration 1000.0 nM
[25] = molecular target: Ribosomal protein S6 kinase alpha-3 (Homo sapiens) (UniProt P51812); conditions: Compound concentration 1000.0 nM
[26] = molecular target: Inhibitor of nuclear factor kappa-B kinase subunit epsilon (Homo sapiens) (UniProt Q14164); conditions: Compound concentration 1000.0 nM
[27] = molecular target: Interferon-induced, double-stranded RNA-activated protein kinase (Homo sapiens) (UniProt P19525); conditions: Compound concentration 1000.0 nM
[28] = molecular target: Beta-3 adrenergic receptor (Homo sapiens) (UniProt P13945); conditions: Compound concentration 10.0 uM
[29] = molecular target: Dual specificity tyrosine-phosphorylation-regulated kinase 2 (Homo sapiens) (UniProt Q92630); conditions: Compound concentration 1000.0 nM
[30] = molecular target: Serine/threonine-protein kinase 4 (Homo sapiens) (UniProt Q13043); conditions: Compound concentration 1000.0 nM
[31] = molecular target: Serine/threonine-protein kinase NIM1 (Homo sapiens) (UniProt Q8IY84); conditions: Compound concentration 1000.0 nM
[32] = molecular target: Serine/threonine-protein kinase MARK2 (Homo sapiens) (UniProt Q7KZI7); conditions: Compound concentration 1000.0 nM
[33] = molecular target: Casein kinase I isoform gamma-2 (Homo sapiens) (UniProt P78368); conditions: Compound concentration 1000.0 nM
[34] = test system: Epidermal growth factor receptor (Homo sapiens), P00533 [T790M]; conditions: Compound concentration 1000.0 nM
[35] = molecular target: Mitogen-activated protein kinase kinase kinase 7 (Homo sapiens) (UniProt O43318); conditions: Compound concentration 1000.0 nM
[36] = molecular target: SRSF protein kinase 3 (Homo sapiens) (UniProt Q9UPE1); conditions: Compound concentration 1000.0 nM
[37] = molecular target: Casein kinase I isoform gamma-3 (Homo sapiens) (UniProt Q9Y6M4); conditions: Compound concentration 1000.0 nM
[38] = molecular target: Rhodopsin kinase GRK1 (Homo sapiens) (UniProt Q15835); conditions: Compound concentration 1000.0 nM
[39] = molecular target: Ephrin type-A receptor 4 (Homo sapiens) (UniProt P54764); conditions: Compound concentration 1000.0 nM
[40] = molecular target: Rhodopsin kinase GRK7 (Homo sapiens) (UniProt Q8WTQ7); conditions: Compound concentration 1000.0 nM
[41] = molecular target: Tyrosine-protein kinase Srms (Homo sapiens) (UniProt Q9H3Y6); conditions: Compound concentration 1000.0 nM
[42] = molecular target: Serine/threonine-protein kinase haspin (Homo sapiens) (UniProt Q8TF76); conditions: Compound concentration 1000.0 nM
[43] = molecular target: Cyclin-dependent kinase 9 (Homo sapiens) (UniProt P50750); conditions: Compound concentration 1000.0 nM
[44] = molecular target: Microtubule-associated serine/threonine-protein kinase 1 (Homo sapiens) (UniProt Q9Y2H9); conditions: Compound concentration 1000.0 nM
[45] = molecular target: Ephrin type-A receptor 5 (Homo sapiens) (UniProt P54756); conditions: Compound concentration 1000.0 nM

Chain of Mitogen-activated protein kinase 1 (Homo sapiens) (P28482 whole entry): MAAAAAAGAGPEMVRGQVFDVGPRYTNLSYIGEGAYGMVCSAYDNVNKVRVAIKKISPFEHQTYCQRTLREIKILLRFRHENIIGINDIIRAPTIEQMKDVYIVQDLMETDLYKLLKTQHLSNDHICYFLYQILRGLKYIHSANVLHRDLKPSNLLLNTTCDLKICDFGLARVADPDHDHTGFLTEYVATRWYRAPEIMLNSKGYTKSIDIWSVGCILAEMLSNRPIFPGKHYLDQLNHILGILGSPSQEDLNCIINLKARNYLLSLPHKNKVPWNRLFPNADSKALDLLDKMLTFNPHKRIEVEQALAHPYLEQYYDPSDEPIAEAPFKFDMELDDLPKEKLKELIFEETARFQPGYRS
Chain of Dual specificity tyrosine-phosphorylation-regulated kinase 2 (Homo sapiens) (Q92630 whole entry): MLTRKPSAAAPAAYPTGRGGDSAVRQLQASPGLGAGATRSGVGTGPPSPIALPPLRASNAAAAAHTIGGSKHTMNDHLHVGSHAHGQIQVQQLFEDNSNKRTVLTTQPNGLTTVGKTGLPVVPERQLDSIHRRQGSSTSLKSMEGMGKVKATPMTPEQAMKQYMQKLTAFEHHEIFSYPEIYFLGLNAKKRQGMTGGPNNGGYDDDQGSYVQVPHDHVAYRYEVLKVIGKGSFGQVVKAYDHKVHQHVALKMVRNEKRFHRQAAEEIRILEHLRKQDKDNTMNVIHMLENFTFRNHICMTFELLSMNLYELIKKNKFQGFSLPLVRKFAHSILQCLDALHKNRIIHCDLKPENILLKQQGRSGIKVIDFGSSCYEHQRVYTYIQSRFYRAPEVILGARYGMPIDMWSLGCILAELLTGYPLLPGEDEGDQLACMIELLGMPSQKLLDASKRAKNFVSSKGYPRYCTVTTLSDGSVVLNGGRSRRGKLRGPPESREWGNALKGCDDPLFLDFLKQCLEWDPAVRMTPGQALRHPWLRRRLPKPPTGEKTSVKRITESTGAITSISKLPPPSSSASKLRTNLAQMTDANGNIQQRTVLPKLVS
Chain of Serine/threonine-protein kinase Nek6 (Homo sapiens) (Q9HC98 whole entry): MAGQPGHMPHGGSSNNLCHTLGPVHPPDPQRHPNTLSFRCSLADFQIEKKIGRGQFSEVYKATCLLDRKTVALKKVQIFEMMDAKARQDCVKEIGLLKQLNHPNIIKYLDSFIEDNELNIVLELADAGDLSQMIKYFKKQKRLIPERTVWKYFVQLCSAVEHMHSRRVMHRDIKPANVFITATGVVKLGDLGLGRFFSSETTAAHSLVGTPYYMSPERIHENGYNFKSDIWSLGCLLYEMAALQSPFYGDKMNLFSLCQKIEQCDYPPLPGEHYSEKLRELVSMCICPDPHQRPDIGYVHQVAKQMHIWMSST
Chain of Mitogen-activated protein kinase kinase kinase kinase 5 (Homo sapiens) (Q9Y4K4 whole entry, looked up): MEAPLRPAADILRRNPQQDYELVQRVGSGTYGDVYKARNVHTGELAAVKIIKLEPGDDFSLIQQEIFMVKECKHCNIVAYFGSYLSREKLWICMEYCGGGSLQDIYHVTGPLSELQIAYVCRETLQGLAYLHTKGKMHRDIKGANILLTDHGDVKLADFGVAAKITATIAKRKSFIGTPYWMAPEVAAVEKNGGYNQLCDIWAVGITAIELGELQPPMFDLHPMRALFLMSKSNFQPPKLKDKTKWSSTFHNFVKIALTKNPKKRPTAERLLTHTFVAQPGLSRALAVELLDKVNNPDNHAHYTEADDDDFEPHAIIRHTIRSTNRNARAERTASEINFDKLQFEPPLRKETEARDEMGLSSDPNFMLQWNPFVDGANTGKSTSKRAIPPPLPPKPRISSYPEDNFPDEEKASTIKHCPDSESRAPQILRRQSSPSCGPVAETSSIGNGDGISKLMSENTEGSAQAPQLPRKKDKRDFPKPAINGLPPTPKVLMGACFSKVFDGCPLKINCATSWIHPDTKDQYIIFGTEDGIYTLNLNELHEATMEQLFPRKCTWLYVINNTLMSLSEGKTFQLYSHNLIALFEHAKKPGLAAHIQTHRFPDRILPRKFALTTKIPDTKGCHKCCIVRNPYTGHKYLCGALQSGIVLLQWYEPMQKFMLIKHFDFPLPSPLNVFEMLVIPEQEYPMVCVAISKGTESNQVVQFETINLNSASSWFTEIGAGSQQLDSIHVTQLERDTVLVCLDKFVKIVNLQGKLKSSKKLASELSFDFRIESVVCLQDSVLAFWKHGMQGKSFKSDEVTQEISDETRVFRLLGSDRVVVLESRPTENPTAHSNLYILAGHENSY
Chain of Ephrin type-A receptor 2 (Homo sapiens) (P29317 whole entry): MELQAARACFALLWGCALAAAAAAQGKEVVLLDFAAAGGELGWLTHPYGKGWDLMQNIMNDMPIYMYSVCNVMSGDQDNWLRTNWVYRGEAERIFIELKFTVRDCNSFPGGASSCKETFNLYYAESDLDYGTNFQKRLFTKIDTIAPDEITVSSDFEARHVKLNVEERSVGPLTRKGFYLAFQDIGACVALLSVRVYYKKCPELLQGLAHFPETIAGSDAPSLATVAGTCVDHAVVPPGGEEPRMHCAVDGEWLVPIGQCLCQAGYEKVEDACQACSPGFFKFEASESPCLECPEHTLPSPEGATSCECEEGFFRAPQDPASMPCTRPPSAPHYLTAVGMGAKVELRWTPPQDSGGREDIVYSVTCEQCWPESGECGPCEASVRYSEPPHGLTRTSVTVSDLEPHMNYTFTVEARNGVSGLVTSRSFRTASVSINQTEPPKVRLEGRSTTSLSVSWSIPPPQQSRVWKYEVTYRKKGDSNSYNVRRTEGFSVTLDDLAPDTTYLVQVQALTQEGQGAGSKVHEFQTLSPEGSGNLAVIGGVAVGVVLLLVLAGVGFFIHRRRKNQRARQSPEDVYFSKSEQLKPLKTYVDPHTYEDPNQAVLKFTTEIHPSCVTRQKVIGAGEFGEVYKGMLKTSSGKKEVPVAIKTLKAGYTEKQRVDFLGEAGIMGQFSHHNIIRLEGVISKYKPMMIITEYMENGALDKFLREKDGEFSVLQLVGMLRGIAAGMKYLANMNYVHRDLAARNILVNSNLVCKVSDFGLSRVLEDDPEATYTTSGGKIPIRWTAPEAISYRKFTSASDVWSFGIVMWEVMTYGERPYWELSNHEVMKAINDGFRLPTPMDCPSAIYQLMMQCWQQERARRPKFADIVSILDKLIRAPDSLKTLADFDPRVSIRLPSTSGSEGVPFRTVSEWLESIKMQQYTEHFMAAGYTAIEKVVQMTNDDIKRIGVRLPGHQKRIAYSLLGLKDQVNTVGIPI
Chain of Casein kinase I isoform gamma-3 (Homo sapiens) (Q9Y6M4 whole entry, looked up, canonical isoform): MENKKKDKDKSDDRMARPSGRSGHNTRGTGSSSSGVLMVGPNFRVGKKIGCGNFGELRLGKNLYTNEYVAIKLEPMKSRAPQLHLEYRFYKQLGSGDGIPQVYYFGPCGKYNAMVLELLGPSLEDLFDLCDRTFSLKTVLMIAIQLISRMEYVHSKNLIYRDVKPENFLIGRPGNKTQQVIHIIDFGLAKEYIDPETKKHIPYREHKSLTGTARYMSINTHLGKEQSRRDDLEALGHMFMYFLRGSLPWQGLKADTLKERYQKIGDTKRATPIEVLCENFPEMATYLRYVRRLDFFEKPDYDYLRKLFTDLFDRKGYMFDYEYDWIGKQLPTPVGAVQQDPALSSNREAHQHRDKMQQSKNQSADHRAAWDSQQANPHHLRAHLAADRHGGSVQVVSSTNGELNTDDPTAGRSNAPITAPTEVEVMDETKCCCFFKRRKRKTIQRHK
Chain of Tyrosine-protein kinase Srms (Homo sapiens) (Q9H3Y6 whole entry): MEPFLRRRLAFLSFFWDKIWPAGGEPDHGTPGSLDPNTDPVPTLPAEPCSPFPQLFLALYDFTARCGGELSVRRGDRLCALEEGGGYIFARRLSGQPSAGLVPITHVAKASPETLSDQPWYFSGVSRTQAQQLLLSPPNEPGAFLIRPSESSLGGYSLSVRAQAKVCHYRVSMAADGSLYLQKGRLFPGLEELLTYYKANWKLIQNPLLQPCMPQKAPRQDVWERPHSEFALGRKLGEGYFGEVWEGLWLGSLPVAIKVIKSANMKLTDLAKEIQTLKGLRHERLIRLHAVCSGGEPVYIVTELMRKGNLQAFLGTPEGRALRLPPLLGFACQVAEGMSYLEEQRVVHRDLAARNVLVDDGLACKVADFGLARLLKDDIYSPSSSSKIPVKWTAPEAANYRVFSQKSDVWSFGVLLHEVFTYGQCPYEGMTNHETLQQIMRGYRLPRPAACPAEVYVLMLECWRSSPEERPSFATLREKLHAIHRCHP
Chain of Calcium/calmodulin-dependent protein kinase kinase 2 (Homo sapiens) (Q96RR4 2-588 limits assumed): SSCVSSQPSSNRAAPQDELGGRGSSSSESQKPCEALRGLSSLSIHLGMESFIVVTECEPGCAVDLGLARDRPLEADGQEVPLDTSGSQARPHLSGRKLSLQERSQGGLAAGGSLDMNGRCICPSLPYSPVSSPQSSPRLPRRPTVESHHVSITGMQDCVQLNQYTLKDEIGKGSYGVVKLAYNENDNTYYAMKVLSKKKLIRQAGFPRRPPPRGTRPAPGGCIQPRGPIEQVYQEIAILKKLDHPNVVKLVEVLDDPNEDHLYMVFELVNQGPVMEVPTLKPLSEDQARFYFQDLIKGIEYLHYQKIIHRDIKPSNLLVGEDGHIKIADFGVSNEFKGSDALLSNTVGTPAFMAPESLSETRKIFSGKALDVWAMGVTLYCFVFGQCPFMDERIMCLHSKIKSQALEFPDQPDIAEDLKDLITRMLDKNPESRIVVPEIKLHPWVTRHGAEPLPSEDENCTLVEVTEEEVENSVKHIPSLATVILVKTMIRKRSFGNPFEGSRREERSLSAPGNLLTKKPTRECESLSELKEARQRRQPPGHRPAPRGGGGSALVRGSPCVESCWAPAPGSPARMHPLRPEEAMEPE
Chain of Beta-3 adrenergic receptor (Homo sapiens) (P13945 whole entry, looked up): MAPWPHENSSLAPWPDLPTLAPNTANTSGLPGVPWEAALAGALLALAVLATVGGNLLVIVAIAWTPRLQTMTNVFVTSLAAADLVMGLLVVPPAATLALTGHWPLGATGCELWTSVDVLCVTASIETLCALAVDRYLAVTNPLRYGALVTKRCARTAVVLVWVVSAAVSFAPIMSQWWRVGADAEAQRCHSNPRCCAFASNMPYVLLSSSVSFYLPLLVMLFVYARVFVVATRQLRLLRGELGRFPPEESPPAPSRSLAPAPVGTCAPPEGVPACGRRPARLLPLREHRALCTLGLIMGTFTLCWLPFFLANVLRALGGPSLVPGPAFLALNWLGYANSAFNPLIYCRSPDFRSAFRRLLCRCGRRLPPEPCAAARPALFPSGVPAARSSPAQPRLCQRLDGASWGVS

## Cn1cncc1[C@@](O)(COc1ccc(C#N)cc1-c1ccc(OC(F)(F)F)cc1)c1ccc(C#N)cc1 [A-108]
[1]
  residual activity: 90%
[2]
  residual activity: 100%
[3]
  residual activity: 100%
[4]
  residual activity: 74%
[5]
  residual activity: 100%
[6]
  residual activity: 74%
[7]
  residual activity: 91%
[8]
  residual activity: 100%
[9]
  residual activity: 100%
[10]
  residual activity: 78%
[11]
  residual activity: 75%
[12]
  residual activity: 100%
[13]
  residual activity: 100%
[14]
  residual activity: 100%
[15]
  residual activity: 97%
[16]
  residual activity: 95%
[17]
  residual activity: 97%
[18]
  residual activity: 100%
[19]
  residual activity: 60%
[20]
  inhibition: 7.11%
[21]
  residual activity: 100%
[22]
  residual activity: 95%
[23]
  residual activity: 89%
[24]
  residual activity: 100%
[25]
  residual activity: 98%
[26]
  residual activity: 100%
[27]
  residual activity: 100%
[28]
  inhibition: -5.85%
[29]
  residual activity: 89%
[30]
  residual activity: 100%
[31]
  residual activity: 97%
[32]
  residual activity: 100%
[33]
  residual activity: 64%
[34]
  residual activity: 68%
[35]
  residual activity: 67%
[36]
  residual activity: 56%
[37]
  residual activity: 100%
[38]
  residual activity: 100%
[39]
  residual activity: 12%
[40]
  residual activity: 81%
[41]
  residual activity: 100%
[42]
  residual activity: 100%
[43]
  residual activity: 100%
[44]
  residual activity: 100%
[45]
  residual activity: 67%

## Cn1cncc1[C@](O)(COc1ccc(C#N)cc1-c1ccc(OC(F)(F)F)cc1)c1ccc(C#N)cc1 [ABT-100]
[1]
  residual activity: 77%
[2]
  residual activity: 100%
[3]
  residual activity: 100%
[4]
  residual activity: 79%
[5]
  residual activity: 100%
[6]
  residual activity: 85%
[7]
  residual activity: 90%
[8]
  residual activity: 86%
[9]
  residual activity: 86%
[10]
  residual activity: 95%
[11]
  residual activity: 70%
[12]
  residual activity: 86%
[13]
  residual activity: 100%
[14]
  residual activity: 90%
[15]
  residual activity: 100%
[16]
  residual activity: 95%
[17]
  residual activity: 100%
[18]
  residual activity: 100%
[19]
  residual activity: 80%
[20]
  inhibition: 1.11%
[21]
  residual activity: 90%
[22]
  residual activity: 100%
[23]
  residual activity: 62%
[24]
  residual activity: 79%
[25]
  residual activity: 100%
[26]
  residual activity: 100%
[27]
  residual activity: 100%
[28]
  inhibition: 32.9%
[29]
  residual activity: 52%
[30]
  residual activity: 86%
[31]
  residual activity: 87%
[32]
  residual activity: 95%
[33]
  residual activity: 78%
[34]
  residual activity: 100%
[35]
  residual activity: 100%
[36]
  residual activity: 53%
[37]
  residual activity: 71%
[38]
  residual activity: 95%
[39]
  residual activity: 100%
[40]
  residual activity: 100%
[41]
  residual activity: 79%
[42]
  residual activity: 100%
[43]
  residual activity: 100%
[44]
  residual activity: 92%
[45]
  residual activity: 97%
